Results published in article PMC12373846, “Hemoglobin as a pseudoperoxidase and drug target for oxidative stress-related diseases” (Signal Transduction and Targeted Therapy, 2025).
Read-outs that look alike come from different tables or passages of the source.

Assays:
Hb = molecular target: T1, Hb (Homo sapiens, UniProt P68871); assay: ROS-Glo H2O2 assay with Hb; assay type: biochemical; conditions: for remaining H2O2 normalized to no Hb: Fig. 2d; for fold change in H2O2 decomposition (Hb pseudoperoxidase activity per 0.5 h): 30-min window, Fig. 2b
T1 construct: purchased Sigma-Aldrich H7379
T1 sequence (P68871 2-147 limits assumed): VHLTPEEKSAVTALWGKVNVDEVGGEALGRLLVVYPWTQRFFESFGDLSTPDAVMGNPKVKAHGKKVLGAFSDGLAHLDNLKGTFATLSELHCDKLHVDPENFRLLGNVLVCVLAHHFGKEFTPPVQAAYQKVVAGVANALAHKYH
T1 sequence (P69905 2-142 partner limits assumed): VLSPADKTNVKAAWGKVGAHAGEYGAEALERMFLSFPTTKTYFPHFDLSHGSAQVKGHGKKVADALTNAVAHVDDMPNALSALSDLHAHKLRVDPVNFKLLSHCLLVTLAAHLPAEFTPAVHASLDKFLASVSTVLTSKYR
Method: Hb (Sigma‒Aldrich, H7379), H2O2 (Sigma‒Aldrich, H1009), and Amplex Red reagents (Invitrogen, A12222) were obtained for the study. A 4 μM H2O2 solution was prepared in 50 mM sodium phosphate buffer (pH 7.2). Then, 49 μl of this mixture was mixed with 1 μl of the test compound in DMSO or distilled water. The mixture was combined with an assay mixture of Amplex Red reagent (20 mM stock to 0.1 mM) and HRP (200 U/ml stock to 0.2 U/ml) and added to the wells at 50 μl/well. After a 60-min incubation at 37 °C, resorufin production was quantified via a microplate fluorescence reader (SpectraMax iD5, Molecular Devices) at ex/em = 535/580 nm. […] For the ROS-Glo assay, the H2O2 substrate solution and ROS-Glo detection solution were prepared according to the manufacturer’s instructions. 10 μM H2O2 and drugs were prepared as in the Amplex Red assay, with HRP, Hb, CAT, or GPx added as needed. The mixture was added to the wells at 100 μl/well and incubated for 60 min at 37 °C. H2O2 substrate solution was added, and the mixture was incubated at room temperature for 30 min. After the H2O2 substrate solution was added and incubated at room temperature for 30 min, the ROS-Glo detection solution was added, and the mixture was incubated for 15 min. Luminescence was measured via iD5 microplate readers. […] The U/ml was calculated on the basis of the amount of H2O2 reduced by Hb during the reaction, using μg/ml and U/mg.
To evaluate the extent of peroxidase function facilitation by HTPEB (1 μM) and KDS12025 (1 μM) in HRP (0.2 U/ml) and Hb (10 μg/ml), we used the ROS-Glo assay over 30 and 60 min. The fold change was calculated by dividing the delta values during the 30-min reaction for the vehicle over drug conditions.
To assess enzyme activity, the amount of H2O2 consumed over a specific time was quantified alongside a standard curve. For the peroxidase function of Hb, Hb was administered at doses ranging from 0.01 to 112 U/ml and preincubated with H2O2 and either DMSO, HTPEB (1 μM), or KDS12025 (1 μM) at 37 °C for 30 min. The remaining H2O2 was measured via the ROS-Glo assay and normalized against conditions without Hb. The dose‒response curve, EC50, and EC20 for H2O2 decomposition were calculated and determined by fitting the data with GraphPad Prism software. The fitting method had no special handling of outliers, and least squares regression with confidence intervals of the parameters was 95%.

HRP = molecular target: T2, HRP (Armoracia rusticana, UniProt P00433); assay: H2O2 assay with HRP (HRP-EC50); assay type: biochemical, horseradish; conditions: Tables S2, S3; read-out: HRP-EC50
T2 sequence (P00433 31-353): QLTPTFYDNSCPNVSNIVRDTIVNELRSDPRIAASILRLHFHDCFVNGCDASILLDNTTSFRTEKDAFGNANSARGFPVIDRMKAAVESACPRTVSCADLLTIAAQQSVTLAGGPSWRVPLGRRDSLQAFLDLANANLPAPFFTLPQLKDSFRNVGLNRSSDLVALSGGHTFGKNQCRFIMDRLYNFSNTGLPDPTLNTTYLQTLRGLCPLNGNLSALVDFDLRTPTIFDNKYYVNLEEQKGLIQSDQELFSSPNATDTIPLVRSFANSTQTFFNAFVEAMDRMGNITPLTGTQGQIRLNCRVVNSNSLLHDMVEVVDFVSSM
Method: Hb (Sigma‒Aldrich, H7379), H2O2 (Sigma‒Aldrich, H1009), and Amplex Red reagents (Invitrogen, A12222) were obtained for the study. A 4 μM H2O2 solution was prepared in 50 mM sodium phosphate buffer (pH 7.2). Then, 49 μl of this mixture was mixed with 1 μl of the test compound in DMSO or distilled water. The mixture was combined with an assay mixture of Amplex Red reagent (20 mM stock to 0.1 mM) and HRP (200 U/ml stock to 0.2 U/ml) and added to the wells at 50 μl/well. After a 60-min incubation at 37 °C, resorufin production was quantified via a microplate fluorescence reader (SpectraMax iD5, Molecular Devices) at ex/em = 535/580 nm. The H2O2-decomposing activity was estimated via the following equation: (sample fluorescence-blank fluorescence)/(control […]-blank fluorescence) × 100. For the ROS-Glo assay, the H2O2 substrate solution and ROS-Glo detection solution were prepared according to the manufacturer’s instructions. 10 μM H2O2 and drugs were prepared as in the Amplex Red assay, with HRP, Hb, CAT, or GPx added as needed. The mixture was added to the wells at 100 μl/well and incubated for 60 min at 37 °C. H2O2 substrate solution was added, and the mixture was incubated at room temperature for 30 min. After the H2O2 substrate solution was added and incubated at room temperature for 30 min, the ROS-Glo detection solution was added, and the mixture was incubated for 15 min. Luminescence was measured via iD5 microplate readers. The H2O2-decomposing activity was estimated via the following equation: (sample luminescence-blank luminescence)/(control luminescence-blank luminescence) × 100. The U/ml was calculated on the basis of the amount of H2O2 reduced by Hb during the reaction, using μg/ml and U/mg.

[1] = Solubility in aqueous solutions (statement); assay type: physicochemical
GPx = GPx colorimetric assay; assay type: biochemical; conditions: standard GPx assay
Method: To assess the GPx activity, the reaction was prepared in a 96-well plate by adding glutathione reductase and glutathione solution, GPx enzyme (5µl, final concentration 60 U/ml), and the drug (1 µl of KDS12025 and HTEPB) to a total volume of 100 µl per well, followed by manufactural protocol (Abcam, ab102530). The plate was incubated at room temperature for 15 min to allow pre-reactions and drug interactions to occur. Following the incubation, the reaction was initiated by adding cumene hydroperoxide as the substrate to each well. The absorbance at 340 nm was measured in kinetic mode for 10–20 min, and the rate of NADPH consumption was used to calculate GPx activity, reflecting the enzyme’s ability to reduce the hydroperoxide substrate in the presence of the test compound.

[2] = Tables S2, S3, read-out: HB-EC50
[3] = in the presence of Hb, Fig. 1h, read-out: EC50 with Hb (H2O2 decomposition)

Structure (SMILES) | EC50 (Hb; [2]) [nM] | EC50 (Hb; [3]) [nM] | EC50 (HRP) [nM] | solubility in water / aqueous solutions [1] | enhancement of Hb pseudoperoxidase activity (Hb) [fold] | EC50 (Hb; Fig. S1f, read-out: EC50, H2O2 decomposition with human hemoglobin (hHb)) [nM] | remaining H2O2 normalized to no Hb (Hb; Hb 0.01 U/ml) | H2O2 decomposition at extremely low Hb (Hb; Hb 0.04 U/ml, 0.03 μg/ml) | remaining H2O2 normalized to no Hb (Hb; Hb 0.1 U/ml) | remaining H2O2 normalized to no Hb (Hb; Hb 1 U/ml) | fold change in H2O2 decomposition (Hb pseudoperoxidase activity per 0.5 h) (Hb) [fold] | potency relative to HTPEB (Hb; ratio of EC50 with Hb) | fold decrease of Hb EC20 for H2O2 decomposition (Hb; vs Hb alone, Fig. 2e) [fold] | fold decrease of Hb EC50 for H2O2 decomposition (Hb; vs Hb alone, Fig. 2e) [fold] | effect on GPx activity (GPx) | facilitation of H2O2 decomposition by Hb (Hb; with HTPEB, Fig. 1f) [fold]
CNc1ccc(NCCc2ccc(C(F)(F)F)cc2)cc1.Cl [KDS12017, N^1-methyl-N^4-(4-(trifluoromethyl)phenethyl)benzene-1,4-diamine hydrochloride salt] | 86.2 | 90 | 828 | – | – | – | – | – | – | – | – | – | – | – | – | –
CN(C)c1ccc(NCCc2ccc(C(F)(F)F)cc2)cc1.Cl [KDS12008, N^1,N^1-dimethyl-N^4-(4-(trifluoromethyl)phenethyl)benzene-1,4-diamine hydrochloride salt] | 67 | – | 795 | – | – | – | – | – | – | – | – | – | – | – | – | –
CNc1ccc(NCCc2ccccc2OC)cc1.Cl [KDS12025, N^1-(2-methoxyphenethyl)-N^4-methylbenzene-1,4-diamine hydrochloride salt] | 44.9 | 40 | 529 | highly water soluble | 100 | 33 | 82.57±2.025 | up to 20% | 75.36±1.113 | 62.38±2.923 | 5.676±0.6374 | ~ 4 fold | 98 | 4.7 | did not affect other peroxidases | –
O=C(O)c1cc(NCCc2ccc(C(F)(F)F)cc2)ccc1O [HTPEB, 2-hydroxy-5-[2-(4-trifluoromethyl-phenyl)-ethylamino]-benzoic acid, reference compound] | 155 | 150 | 1520 | poor | – | – | 84.92±3.034 | – | 81.24±5.607 | 70.82±3.83 | 2.529±0.6645 | – | – | – | no enhancement | 2
